Measurements published in ChEMBL document CHEMBL1255475, “Mutant prevention concentrations of four carbapenems against gram-negative rods” (2010).
Values after ≈ are worked out from the molar mass of the structure shown.

What was measured:
Escherichia coli [1] = assay: Ratio of mutant prevention concentration to minimum Inhibitory concentration for beta-lactamase-positive ESBL-positive Escherichia coli E452; type: functional
Escherichia coli [2] = assay: Ratio of mutant prevention concentration to minimum Inhibitory concentration for beta-lactamase-negative Escherichia coli E345; type: functional
Escherichia coli [3] = assay: Ratio of mutant prevention concentration to minimum Inhibitory concentration for beta-lactamase-positive ESBL-positive Escherichia coli E460; type: functional
Klebsiella pneumoniae [4] = assay: Ratio of mutant prevention concentration to minimum Inhibitory concentration for beta-lactamase-negative Klebsiella pneumoniae E358; type: functional
Escherichia coli [5] = assay: Ratio of mutant prevention concentration to minimum Inhibitory concentration for beta-lactamase-negative Escherichia coli E350; type: functional
Escherichia coli [6] = assay: Antibacterial activity against beta-lactamase-negative Escherichia coli E408 incubated up to 7 days by agar dilution method; type: functional; conditions: E408, 168 h
Escherichia coli [7] = assay: Ratio of mutant prevention concentration to minimum Inhibitory concentration for beta-lactamase-positive ESBL-positive Escherichia coli E451; type: functional
Escherichia coli [8] = assay: Ratio of mutant prevention concentration to minimum Inhibitory concentration for beta-lactamase-positive ESBL-positive Escherichia coli E456; type: functional
Klebsiella pneumoniae [9] = assay: Ratio of mutant prevention concentration to minimum Inhibitory concentration for beta-lactamase-positive ESBL-positive Klebsiella pneumoniae E453; type: functional
Escherichia coli [10] = assay: Ratio of mutant prevention concentration to minimum Inhibitory concentration for beta-lactamase-negative Escherichia coli E408; type: functional
Escherichia coli [11] = assay: Antibacterial activity against beta-lactamase-negative Escherichia coli E425 incubated up to 7 days by agar dilution method; type: functional; conditions: E425, 168 h
Escherichia coli [12] = assay: Ratio of mutant prevention concentration to minimum Inhibitory concentration for beta-lactamase-negative Escherichia coli E344; type: functional
Klebsiella pneumoniae [13] = assay: Ratio of mutant prevention concentration to minimum Inhibitory concentration for beta-lactamase-positive ESBL-negative Klebsiella pneumoniae E481; type: functional
Klebsiella pneumoniae [14] = assay: Ratio of mutant prevention concentration to minimum Inhibitory concentration for beta-lactamase-positive ESBL-positive Klebsiella pneumoniae E475; type: functional
Klebsiella pneumoniae [15] = assay: Ratio of mutant prevention concentration to minimum Inhibitory concentration for beta-lactamase-positive ESBL-negative Klebsiella pneumoniae E480; type: functional
Klebsiella pneumoniae [16] = assay: Ratio of mutant prevention concentration to minimum Inhibitory concentration for beta-lactamase-positive ESBL-negative Klebsiella pneumoniae E479; type: functional
Escherichia coli [17] = assay: Ratio of mutant prevention concentration to minimum Inhibitory concentration for beta-lactamase-positive ESBL-negative Escherichia coli E430; type: functional
Klebsiella pneumoniae [18] = assay: Ratio of mutant prevention concentration to minimum Inhibitory concentration for beta-lactamase-negative Klebsiella pneumoniae E417; type: functional
Escherichia coli [19] = assay: Ratio of mutant prevention concentration to minimum Inhibitory concentration for beta-lactamase-negative Escherichia coli E409; type: functional
Escherichia coli [20] = assay: Ratio of mutant prevention concentration to minimum Inhibitory concentration for beta-lactamase-negative Escherichia coli E424; type: functional
Escherichia coli [21] = assay: Ratio of mutant prevention concentration to minimum Inhibitory concentration for beta-lactamase-positive ESBL-negative Escherichia coli E412; type: functional
Klebsiella pneumoniae [22] = assay: Ratio of mutant prevention concentration to minimum Inhibitory concentration for beta-lactamase-negative Klebsiella pneumoniae E418; type: functional
Klebsiella pneumoniae [23] = assay: Ratio of mutant prevention concentration to minimum Inhibitory concentration for beta-lactamase-negative Klebsiella pneumoniae E362; type: functional
Escherichia coli [24] = assay: Ratio of mutant prevention concentration to minimum Inhibitory concentration for beta-lactamase-positive ESBL-negative Escherichia coli E415; type: functional
Klebsiella pneumoniae [25] = assay: Ratio of mutant prevention concentration to minimum Inhibitory concentration for beta-lactamase-positive ESBL-positive Klebsiella pneumoniae E478; type: functional
Pseudomonas aeruginosa [26] = assay: Antibacterial activity against Pseudomonas aeruginosa P341 incubated up to 7 days by agar dilution method; type: functional; conditions: P341, 168 h
Pseudomonas aeruginosa [27] = assay: Antibacterial activity against Pseudomonas aeruginosa P349 incubated up to 7 days by agar dilution method; type: functional; conditions: P349, 168 h
Acinetobacter baumannii [28] = assay: Antibacterial activity against Acinetobacter baumannii A911 incubated for 24 h by agar dilution method; conditions: A911, 24 h
Pseudomonas aeruginosa [29] = assay: Antibacterial activity against Pseudomonas aeruginosa P365 incubated up to 7 days by agar dilution method; type: functional; conditions: P365, 168 h
Pseudomonas aeruginosa [30] = assay: Antibacterial activity against Pseudomonas aeruginosa P326 incubated up to 7 days by agar dilution method; type: functional; conditions: P326, 168 h
Pseudomonas aeruginosa [31] = assay: Antibacterial activity against Pseudomonas aeruginosa P328 incubated up to 7 days by agar dilution method; type: functional; conditions: P328, 168 h
Acinetobacter baumannii [32] = assay: Antibacterial activity against Acinetobacter baumannii A910 incubated for 24 h by agar dilution method; conditions: A910, 24 h
Pseudomonas aeruginosa [33] = assay: Antibacterial activity against Pseudomonas aeruginosa P335 incubated up to 7 days by agar dilution method; type: functional; conditions: P335, 168 h
Pseudomonas aeruginosa [34] = assay: Antibacterial activity against Pseudomonas aeruginosa P334 incubated up to 7 days by agar dilution method; type: functional; conditions: P334, 168 h
Pseudomonas aeruginosa [35] = assay: Antibacterial activity against Pseudomonas aeruginosa P320 incubated up to 7 days by agar dilution method; type: functional; conditions: P320, 168 h
Acinetobacter baumannii [36] = assay: Antibacterial activity against Acinetobacter baumannii A850 incubated up to 7 days by agar dilution method; type: functional; conditions: A850, 168 h
Acinetobacter baumannii [37] = assay: Antibacterial activity against Acinetobacter baumannii A892 incubated for 24 h by agar dilution method; conditions: A892, 24 h
Acinetobacter baumannii [38] = assay: Antibacterial activity against Acinetobacter baumannii A928 incubated for 24 h by agar dilution method; conditions: A928, 24 h
Acinetobacter baumannii [39] = assay: Antibacterial activity against Acinetobacter baumannii A901 incubated up to 7 days by agar dilution method; type: functional; conditions: A901, 168 h
Acinetobacter baumannii [40] = assay: Antibacterial activity against Acinetobacter baumannii A890 incubated up to 7 days by agar dilution method; type: functional; conditions: A890, 168 h
Acinetobacter baumannii [41] = assay: Antibacterial activity against Acinetobacter baumannii A931 incubated for 24 hrs by agar dilution method; conditions: A931, 24 h
Acinetobacter baumannii [42] = assay: Antibacterial activity against Acinetobacter baumannii A848 incubated up to 7 days by agar dilution method; type: functional; conditions: A848, 168 h
Acinetobacter baumannii [43] = assay: Antibacterial activity against Acinetobacter baumannii A864 assessed as mutant prevention concentration after overnight incubation; type: functional
Acinetobacter baumannii [44] = assay: Antibacterial activity against Acinetobacter baumannii A908 incubated for 24 h by agar dilution method; conditions: A908, 24 h
Pseudomonas aeruginosa [45] = assay: Antibacterial activity against Pseudomonas aeruginosa P358 incubated up to 7 days by agar dilution method; type: functional; conditions: P358, 168 h
Pseudomonas aeruginosa [46] = assay: Antibacterial activity against Pseudomonas aeruginosa P322 incubated up to 7 days by agar dilution method; type: functional; conditions: P322, 168 h
Pseudomonas aeruginosa [47] = assay: Antibacterial activity against Pseudomonas aeruginosa P319 incubated up to 7 days by agar dilution method; type: functional; conditions: P319, 168 h
Pseudomonas aeruginosa [48] = assay: Antibacterial activity against Pseudomonas aeruginosa P323 incubated up to 7 days by agar dilution method; type: functional; conditions: P323, 168 h
Pseudomonas aeruginosa [49] = assay: Antibacterial activity against Pseudomonas aeruginosa P369 incubated up to 7 days by agar dilution method; type: functional; conditions: P369, 168 h

## C[C@@H](O)[C@H]1C(=O)N2C(C(=O)O)=C(S[C@@H]3CN[C@H](C(=O)Nc4cccc(C(=O)O)c4)C3)[C@H](C)[C@H]12
Escherichia coli [1]
  Ratio: 8
Escherichia coli [2]
  Ratio: 4
Escherichia coli [3]
  Ratio: 4
Klebsiella pneumoniae [4]
  Ratio: 4
Escherichia coli [5]
  Ratio: 2
Escherichia coli [6]
  MIC: 0.016 µg/mL (≈ 0.0336 µM)
Escherichia coli [7]
  Ratio: 16
Escherichia coli [8]
  Ratio: 16
Klebsiella pneumoniae [9]
  Ratio: 2
Escherichia coli [10]
  Ratio: 4
Escherichia coli [11]
  MIC: 0.008 µg/mL (≈ 0.0168 µM)
Escherichia coli [12]
  Ratio: 4
Klebsiella pneumoniae [13]
  Ratio: 2
Klebsiella pneumoniae [14]
  Ratio: 2
Klebsiella pneumoniae [15]
  Ratio: 4
Klebsiella pneumoniae [16]
  Ratio: 8
Escherichia coli [17]
  Ratio: >8
Klebsiella pneumoniae [18]
  Ratio: 2
Escherichia coli [19]
  Ratio: 8
Escherichia coli [20]
  Ratio: 4
Escherichia coli [21]
  Ratio: 16
Klebsiella pneumoniae [22]
  Ratio: 2
Klebsiella pneumoniae [23]
  Ratio: 4
Escherichia coli [24]
  Ratio: 4
Klebsiella pneumoniae [25]
  Ratio: 2

## C[C@@H](O)[C@H]1C(=O)N2C(C(=O)O)=C(S[C@@H]3CN[C@H](CNS(N)(=O)=O)C3)[C@H](C)[C@H]12 [DORIPENEM]
Escherichia coli [1]
  Ratio: 4
Escherichia coli [2]
  Ratio: 2
Pseudomonas aeruginosa [26]
  MIC: 0.5 µg/mL (≈ 1.19 µM)
Escherichia coli [3]
  Ratio: 4
Klebsiella pneumoniae [4]
  Ratio: 2
Escherichia coli [5]
  Ratio: 2
Escherichia coli [6]
  MIC: 0.03 µg/mL (≈ 0.0713 µM)
Pseudomonas aeruginosa [27]
  MIC: 0.5 µg/mL (≈ 1.19 µM)
Escherichia coli [7]
  Ratio: 2
Escherichia coli [8]
  Ratio: 8
Acinetobacter baumannii [28]
  MIC: 4 µg/mL (≈ 9.51 µM)
Klebsiella pneumoniae [9]
  Ratio: 2
Pseudomonas aeruginosa [29]
  MIC: 0.5 µg/mL (≈ 1.19 µM)
Escherichia coli [10]
  Ratio: 2
Pseudomonas aeruginosa [30]
  MIC: 4 µg/mL (≈ 9.51 µM)
Escherichia coli [11]
  MIC: 0.03 µg/mL (≈ 0.0713 µM)
Pseudomonas aeruginosa [31]
  MIC: 2 µg/mL (≈ 4.76 µM)
Escherichia coli [12]
  Ratio: 2
Acinetobacter baumannii [32]
  MIC: 2 µg/mL (≈ 4.76 µM)
Pseudomonas aeruginosa [33]
  MIC: 2 µg/mL (≈ 4.76 µM)
Klebsiella pneumoniae [13]
  Ratio: 4
Klebsiella pneumoniae [14]
  Ratio: 8
Pseudomonas aeruginosa [34]
  MIC: 0.125 µg/mL (≈ 0.297 µM)
Pseudomonas aeruginosa [35]
  MIC: 0.25 µg/mL (≈ 0.595 µM)
Acinetobacter baumannii [36]
  MIC: 4 µg/mL (≈ 9.51 µM)
Klebsiella pneumoniae [15]
  Ratio: 4
Klebsiella pneumoniae [16]
  Ratio: >16
Acinetobacter baumannii [37]
  MIC: 4 µg/mL (≈ 9.51 µM)
Escherichia coli [17]
  Ratio: 4
Acinetobacter baumannii [38]
  MIC: 0.5 µg/mL (≈ 1.19 µM)
Klebsiella pneumoniae [18]
  Ratio: 2
Acinetobacter baumannii [39]
  MIC: 4 µg/mL (≈ 9.51 µM)
Acinetobacter baumannii [40]
  MIC: 0.25 µg/mL (≈ 0.595 µM)
Acinetobacter baumannii [41]
  MIC: 1 µg/mL (≈ 2.38 µM)
Acinetobacter baumannii [42]
  MIC: 8 µg/mL (≈ 19 µM)
Acinetobacter baumannii [43]
  MPC: 64 µg/mL
Acinetobacter baumannii [44]
  MIC: 0.5 µg/mL (≈ 1.19 µM)
Pseudomonas aeruginosa [45]
  MIC: 8 µg/mL (≈ 19 µM)
Escherichia coli [19]
  Ratio: 4
Escherichia coli [20]
  Ratio: 2
Pseudomonas aeruginosa [46]
  MIC: 0.5 µg/mL (≈ 1.19 µM)
Escherichia coli [21]
  Ratio: 4
Pseudomonas aeruginosa [47]
  MIC: 2 µg/mL (≈ 4.76 µM)
Klebsiella pneumoniae [22]
  Ratio: 2
Pseudomonas aeruginosa [48]
  MIC: 0.5 µg/mL (≈ 1.19 µM)
Klebsiella pneumoniae [23]
  Ratio: 2
Pseudomonas aeruginosa [49]
  MIC: 0.25 µg/mL (≈ 0.595 µM)
Escherichia coli [24]
  Ratio: 2
Klebsiella pneumoniae [25]
  Ratio: >16

## C[C@@H](O)[C@H]1C(=O)N2C(C(=O)O)=C(SCCNC=N)C[C@H]12 [IMIPENEM ANHYDROUS]
Acinetobacter baumannii [43]
  MPC: 64 µg/mL

## C[C@@H](O)[C@H]1C(=O)N2C(C(=O)O)=C(S[C@@H]3CN[C@H](C(=O)N(C)C)C3)[C@H](C)[C@H]12 [MEROPENEM]
Pseudomonas aeruginosa [26]
  MIC: 0.5 µg/mL (≈ 1.3 µM)
Pseudomonas aeruginosa [27]
  MIC: 1 µg/mL (≈ 2.61 µM)
Acinetobacter baumannii [28]
  MIC: 4 µg/mL (≈ 10.4 µM)
Pseudomonas aeruginosa [29]
  MIC: 1 µg/mL (≈ 2.61 µM)
Pseudomonas aeruginosa [30]
  MIC: 8 µg/mL (≈ 20.9 µM)
Pseudomonas aeruginosa [31]
  MIC: 2 µg/mL (≈ 5.22 µM)
Acinetobacter baumannii [32]
  MIC: 1 µg/mL (≈ 2.61 µM)
Pseudomonas aeruginosa [33]
  MIC: 4 µg/mL (≈ 10.4 µM)
Pseudomonas aeruginosa [34]
  MIC: 0.25 µg/mL (≈ 0.652 µM)
Pseudomonas aeruginosa [35]
  MIC: 0.5 µg/mL (≈ 1.3 µM)
Acinetobacter baumannii [36]
  MIC: 4 µg/mL (≈ 10.4 µM)
Acinetobacter baumannii [37]
  MIC: 8 µg/mL (≈ 20.9 µM)
Acinetobacter baumannii [38]
  MIC: 1 µg/mL (≈ 2.61 µM)
Acinetobacter baumannii [39]
  MIC: 2 µg/mL (≈ 5.22 µM)
Acinetobacter baumannii [40]
  MIC: 0.5 µg/mL (≈ 1.3 µM)
Acinetobacter baumannii [41]
  MIC: 1 µg/mL (≈ 2.61 µM)
Acinetobacter baumannii [42]
  MIC: 8 µg/mL (≈ 20.9 µM)
Acinetobacter baumannii [44]
  MIC: 1 µg/mL (≈ 2.61 µM)
Pseudomonas aeruginosa [45]
  MIC: 8 µg/mL (≈ 20.9 µM)
Pseudomonas aeruginosa [46]
  MIC: 2 µg/mL (≈ 5.22 µM)
Pseudomonas aeruginosa [47]
  MIC: 2 µg/mL (≈ 5.22 µM)
Pseudomonas aeruginosa [48]
  MIC: 0.5 µg/mL (≈ 1.3 µM)
Pseudomonas aeruginosa [49]
  MIC: 0.5 µg/mL (≈ 1.3 µM)
